System: platelets (arachidonic acid-induced platelet aggregation)
Assay: Arachidonic acid-induced platelet aggregation in platelet-rich plasma
Format: cell-based, New Zealand rabbit
Conditions: 30 μM; arachidonic acid 100 μM; rabbit platelet-rich plasma
Method: The inhibitory effect of hypoestoxides according to the present invention on platelet aggregation was studied. Platelet-rich plasma from a New Zealand rabbit was used as the source of platelets. Arachidonic acid (100 μM) was used to induce maximal platelet aggregation in vitro. Optical density of aggregation was measured by densitometry.

C=C1C(=O)C[C@H]2C[C@@H]3O[C@@]3(C)CC[C@@H]3O[C@@]3(C)C[C@@H](OC(C)=O)[C@H]1C2(C)C [Hypoestoxide, hypoestoxide]
% Inhibition of arachidonic acid-induced platelet aggregation: 100%
